Assay results: patent US10188613B2 (UNIVERSITY OF SOUTH FLORIDA, priority 1998, dated 2019)
Where a name gives a salt, the structure may show the parent alone.

Assays:
[1] = test system: TS patients; settings: Tourette's Syndrome patients; cited from earlier work
[2] = test system: Swiss-Webster mice; assay: Cocaine interaction study, locomotor activity (Example 6); assay type: in vivo, mouse; settings: 10 mg/kg ip + cocaine 20 mg/kg ip
[3] = target: T1, human α3β2 receptors (Homo sapiens, UniProt P17787+P32297); assay: Two-electrode voltage clamp, Xenopus oocytes expressing α3β2 receptors (Example 4); assay type: cell-based
T1 construct: expressed in transfected cells; host or cells: Xenopus laevis oocytes, cRNA injection

[4] = target: hNET (norepinephrine transporter) (Homo sapiens, UniProt P23975); assay: [125I]RTI-55 binding, HEK293-hNET membranes (Example 5); settings: [125I]RTI-55 competition
[5] = test system: vagotomized, pithed and artificially respired rats; assay: Pithed rat: cardiovascular responses to sympathetic nerve stimulation (Example 3); assay type: in vivo; settings: for stimulation-induced increases in MAP: 0.8 and 2.2 Hz stimulation, i.v. bolus; for increases in heart rate (δ HR) vs saline-treated rats: 2.2 Hz, highest dose (10 mg/kg i.v.)
[6] = target: hSERT (serotonin transporter) (Homo sapiens, UniProt P31645); assay: [125I]RTI-55 binding, HEK293-hSERT membranes (Example 5); settings: [125I]RTI-55 competition
[7] = test system: Swiss-Webster mice; assay: Locomotor depression test, compound alone (Example 6); assay type: in vivo, mouse
[8] = test system: vagotomized, pithed and artificially respired rats; assay: Pithed rat: plasma catecholamine responses, HPLC (Example 3); assay type: in vivo
Description: The aim of the study was to determine whether mecamylamine and its stereoisomers have any effect on pressor responses and increases in plasma catecholamines in response to sympathetic nerve stimulation.
In the vagotomized, pithed and artificially respired rats (with oxygen mixed with air), the cardiovascular responses to test compounds measured were mean arterial blood pressure and heart rate; and the catecholamine responses measured were plasma norepinephrine, epinephrine and dopamine. These variables were measured in rats at rest and after electrical stimulation of sympathetic outflow at 0.2 Hz, 0.8 Hz, and 2.2 Hz for a one-minute duration (50 V, 1 msec pulse), and before and after administration of vehicle or a drug. Catecholamine assays were performed by specific HPLC testing. […] Statistical analysis were applied as appropriate.
Plasma catecholamine (CA) levels—norepinephrine (NE), epinephrine (EPI), and dopamine (DA)—were measured by HPLC with an electrochemical detector following administration of doses of all forms of mecamylamine.

[9] = target: T2, human α7 receptors (Homo sapiens, UniProt P36544); assay: Two-electrode voltage clamp, Xenopus oocytes expressing α7 receptors (Example 4); assay type: cell-based
T2 construct: expressed in transfected cells; host or cells: Xenopus laevis oocytes, cRNA injection

[10] = test system: Sprague-Dawley rats; assay: Effects of mecamylamine alone at high dose: seizures and spontaneous locomotor activity (Example 2); assay type: in vivo, rat; settings: 10 mg/kg s.c., 30 min
Description: Male Sprague-Dawley rats (n=96) weighing between 200 and 250 grams upon arrival were used for this study (Harlan Laboratories, Ind.). The rats were housed two per cage, allowed one week to acclimate to animal facility before testing, kept on a reverse lighting schedule (7:00-19:00 lights off), and allowed free access to food and water. Testing occurred between 10:00 a.m. and 3:00 p.m. in a dimly lit room maintained at 22° C. The experimental procedures carried out in this study were in compliance with the Guide for the Care and Use of Laboratory Animals (National Research Council, 1996) and had the prior approval of the University of South Florida Institutional Animal Care and Use Committee.
Observation of seizures and locomotor recordings were carried out in clear acrylic 41×41×30 cm test chambers inside Digiscan activity monitors (Accuscan, Inc.). Each monitor employs two arrays of infrared photocell beams (8×8 photocells, model RXYZCM-8) to detect several parameters of the rat's movement both horizontally and vertically. Data were collected in 5-min bins during testing.
All drugs were dissolved in physiological saline, and nicotine was adjusted to pH with HCl to 7.40. […] All doses are expressed as the free base of the drug. […]
Data was analyzed using a one-way analysis of variance followed by Fishers least significance test for multiple comparisons. […]

[11] = target: T3, human α3β4 receptors (Homo sapiens, UniProt P30926+P32297); assay: Two-electrode voltage clamp, Xenopus oocytes expressing α3β4 receptors (Example 4); assay type: cell-based
T3 construct: expressed in transfected cells; host or cells: Xenopus laevis oocytes, cRNA injection

[12] = target: α1β1δε mouse muscle receptors (Mus musculus, UniProt P02716+P04756+P09690+P20782); assay: Oocyte electrophysiology, muscle receptor selectivity (Example 4); assay type: cell-based
Description: (§1) For electrophysiology, oocyte recordings were made with an oocyte amplifier (e.g., Warner Instruments, Hamden, Conn., No. OC-725C) and RC-8 recording chamber. Oocytes were placed in the recording chamber with a total volume of about 0.6 ml and perfused at room temperature by frog Ringer's solution (115 mM NaCl, 2.5 mM KCl, 10 mM HEPES pH 7.3, and 1.8 mM CaCl2) containing 1 µM atropine to inhibit potential muscarinic responses. A Mariotte flask filled with Ringer's solution was used to maintain a constant hydrostatic pressure for drug delivery and washes. Drugs were diluted in perfusion solution and loaded into a 2 ml loop at the terminus of the perfusion line. A bypass of the drug-loading loop allowed bath solution to flow continuously while the drug loop was loaded. The drug application was synchronized with data acquisition by using a 2-way electronic valve. The rate of bath solution exchange and drug application was preferably about 6 ml/min. Current electrodes were filled with a solution containing 250 mMCsCl, 250 mM CsF and 100 mM EGTA and had resistances of 0.5-2 MΩ. Voltage electrodes were filed with 3M KCl and have resistances of 1-3MΩ. Oocytes with resting membrane potentials more positive than −30 mV were not used.
(§2) Holding currents immediately before agonist application were subtracted from measurements of the peak response to agonist. […]

[13] = target: hDAT (dopamine transporter) (Homo sapiens, UniProt Q01959); assay: [125I]RTI-55 binding, HEK293-hDAT membranes (Example 5); settings: [125I]RTI-55 competition
[14] = target: T4, human α4β2 receptors (Homo sapiens, UniProt P17787+P43681); assay: Two-electrode voltage clamp, Xenopus oocytes expressing α4β2 receptors (Example 4); assay type: cell-based
T4 construct: expressed in transfected cells; host or cells: Xenopus laevis oocytes, cRNA injection
Description: Voltage dependence and binding reversibility also were determined. Mature female Xenopus laevis African toads were used as a source of oocytes. After linearization and purification of cloned cDNAs, RNA transcripts were prepared in vitro using the appropriate mMessage mMachine® kit from Ambion Inc. (Austin Tex.). Harvested oocytes were treated with collagenase (Worthington Biochemical Corporation, Freehold N.J.) for two hr at room temperature in calcium-free solution. Subsequently stage 5 oocytes were isolated and injected with 50 nL each of a mixture of the appropriate subunit(s) cRNAs. Recordings were made about 1-7 days after cRNA injection.
as §1, with “Voltage electrodes were filed with 3M KCl and have resistances of 1-3MΩ. Oocytes with resting membrane potentials more positive than −30 mV were not used.” left out
For experiments assessing voltage-dependence of drug inhibition, oocytes were initially voltage clamped at a holding potential of −40 mV or −90 mV and […] control application of ACh alone was delivered. […] Residual inhibition was evaluated with a subsequent application of ACh alone at the test potential, after a 5-min wash period.

[15] = target: NMDA receptor subunits NR1 and NR2b (Homo sapiens, UniProt Q05586+Q13224); assay: Oocytes coexpressing NMDA receptor subunits (Example 4); assay type: cell-based; settings: 100 μM; reversible after a 5-min wash
Description: as §1, §2

[16] = test system: Sprague-Dawley rats; assay: Mecamylamine blockade of nicotine-induced seizures (Example 2); assay type: in vivo, rat; settings: for nicotine-induced seizures (percentage of rats that seized): 0.1, 0.3, 1.0 mg/kg s.c. 15 min before nicotine 3.6 mg/kg s.c.; for duration and severity of seizure vs saline comparison group / seizure latency vs saline control: 0.3 and 1.0 mg/kg s.c.
[17] = test system: nicotine receptors; assay: Oocyte electrophysiology, recovery time course and agonist test, receptor subtype not specified (Example 4); assay type: cell-based, human
[18] = test system: Sprague-Dawley derived rats; assay: Prevention of sensitized locomotor stimulant response to nicotine (Example 1); assay type: in vivo, rat; settings: lower doses; nicotine test on day 9
[19] = after co-application of 10 μM with ACh
[20] = 0.1 mg/kg s.c., nicotine 3.6 mg/kg

T1 sequence (P32297 32-505): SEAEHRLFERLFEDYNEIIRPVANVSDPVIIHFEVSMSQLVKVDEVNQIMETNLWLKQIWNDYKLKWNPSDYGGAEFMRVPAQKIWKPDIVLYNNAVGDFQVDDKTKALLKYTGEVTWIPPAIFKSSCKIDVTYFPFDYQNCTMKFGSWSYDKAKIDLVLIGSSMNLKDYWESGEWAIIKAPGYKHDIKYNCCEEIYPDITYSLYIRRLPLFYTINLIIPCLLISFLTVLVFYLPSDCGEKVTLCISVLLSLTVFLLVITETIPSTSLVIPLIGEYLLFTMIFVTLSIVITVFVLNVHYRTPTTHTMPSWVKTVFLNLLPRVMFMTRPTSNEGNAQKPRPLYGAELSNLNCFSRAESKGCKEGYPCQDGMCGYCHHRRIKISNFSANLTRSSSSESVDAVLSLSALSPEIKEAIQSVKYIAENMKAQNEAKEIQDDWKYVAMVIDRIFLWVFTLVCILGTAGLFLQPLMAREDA
T1 sequence (P17787 26-502): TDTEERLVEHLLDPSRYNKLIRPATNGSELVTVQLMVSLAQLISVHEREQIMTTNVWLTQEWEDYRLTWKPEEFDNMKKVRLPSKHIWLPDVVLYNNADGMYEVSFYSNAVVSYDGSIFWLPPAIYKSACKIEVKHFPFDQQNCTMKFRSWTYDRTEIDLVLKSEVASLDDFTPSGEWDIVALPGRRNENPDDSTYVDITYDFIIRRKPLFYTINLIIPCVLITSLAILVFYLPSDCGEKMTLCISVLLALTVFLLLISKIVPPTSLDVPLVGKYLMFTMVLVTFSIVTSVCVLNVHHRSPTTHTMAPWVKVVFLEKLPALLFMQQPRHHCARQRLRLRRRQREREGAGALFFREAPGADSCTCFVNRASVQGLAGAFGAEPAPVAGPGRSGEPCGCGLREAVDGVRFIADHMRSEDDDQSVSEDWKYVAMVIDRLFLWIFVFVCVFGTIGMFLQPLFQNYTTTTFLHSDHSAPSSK
T4 sequence (P43681 29-627 limits assumed): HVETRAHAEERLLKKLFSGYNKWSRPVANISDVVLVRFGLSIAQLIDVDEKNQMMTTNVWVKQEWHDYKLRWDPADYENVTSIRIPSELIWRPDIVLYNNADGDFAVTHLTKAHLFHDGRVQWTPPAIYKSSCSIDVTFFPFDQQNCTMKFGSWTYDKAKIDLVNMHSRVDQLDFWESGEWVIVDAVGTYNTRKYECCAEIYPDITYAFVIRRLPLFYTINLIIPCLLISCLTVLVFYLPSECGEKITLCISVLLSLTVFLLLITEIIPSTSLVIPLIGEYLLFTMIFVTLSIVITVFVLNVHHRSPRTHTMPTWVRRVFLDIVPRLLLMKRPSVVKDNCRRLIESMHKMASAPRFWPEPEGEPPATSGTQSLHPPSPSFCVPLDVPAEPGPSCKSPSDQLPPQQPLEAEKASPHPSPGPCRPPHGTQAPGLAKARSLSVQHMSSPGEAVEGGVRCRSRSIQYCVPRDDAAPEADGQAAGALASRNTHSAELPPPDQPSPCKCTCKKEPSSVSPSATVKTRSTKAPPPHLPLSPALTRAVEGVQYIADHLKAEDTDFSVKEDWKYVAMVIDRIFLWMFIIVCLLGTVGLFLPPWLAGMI
T4 sequence (P17787 26-502): as the sequence (P17787 26-502) above
T2 sequence (P36544 23-502): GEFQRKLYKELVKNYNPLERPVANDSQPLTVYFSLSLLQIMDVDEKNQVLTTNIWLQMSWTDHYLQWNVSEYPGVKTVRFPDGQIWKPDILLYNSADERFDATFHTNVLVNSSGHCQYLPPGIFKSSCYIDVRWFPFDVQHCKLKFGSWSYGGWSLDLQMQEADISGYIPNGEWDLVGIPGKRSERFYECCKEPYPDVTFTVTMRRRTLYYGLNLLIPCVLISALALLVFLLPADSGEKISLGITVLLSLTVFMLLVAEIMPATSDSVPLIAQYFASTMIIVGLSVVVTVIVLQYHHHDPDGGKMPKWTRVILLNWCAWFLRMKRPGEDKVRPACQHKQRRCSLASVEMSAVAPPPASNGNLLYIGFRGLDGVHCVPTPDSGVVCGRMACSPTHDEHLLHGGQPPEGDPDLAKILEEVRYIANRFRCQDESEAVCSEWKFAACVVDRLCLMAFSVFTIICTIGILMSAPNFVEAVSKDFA
Sequence of α1β1δε mouse muscle receptors (P04756 21-457): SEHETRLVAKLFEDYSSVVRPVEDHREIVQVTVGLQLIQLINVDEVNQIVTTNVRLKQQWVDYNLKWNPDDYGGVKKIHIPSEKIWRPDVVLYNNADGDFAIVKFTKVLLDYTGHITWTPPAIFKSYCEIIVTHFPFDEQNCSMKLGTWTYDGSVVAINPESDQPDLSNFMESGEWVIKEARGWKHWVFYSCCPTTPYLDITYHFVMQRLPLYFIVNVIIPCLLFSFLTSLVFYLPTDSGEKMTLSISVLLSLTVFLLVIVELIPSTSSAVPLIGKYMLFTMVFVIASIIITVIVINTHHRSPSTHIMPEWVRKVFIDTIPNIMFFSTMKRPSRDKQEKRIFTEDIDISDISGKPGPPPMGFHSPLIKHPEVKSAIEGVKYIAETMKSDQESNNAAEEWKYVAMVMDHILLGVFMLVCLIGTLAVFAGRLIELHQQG
Sequence of α1β1δε mouse muscle receptors (P09690 24-501): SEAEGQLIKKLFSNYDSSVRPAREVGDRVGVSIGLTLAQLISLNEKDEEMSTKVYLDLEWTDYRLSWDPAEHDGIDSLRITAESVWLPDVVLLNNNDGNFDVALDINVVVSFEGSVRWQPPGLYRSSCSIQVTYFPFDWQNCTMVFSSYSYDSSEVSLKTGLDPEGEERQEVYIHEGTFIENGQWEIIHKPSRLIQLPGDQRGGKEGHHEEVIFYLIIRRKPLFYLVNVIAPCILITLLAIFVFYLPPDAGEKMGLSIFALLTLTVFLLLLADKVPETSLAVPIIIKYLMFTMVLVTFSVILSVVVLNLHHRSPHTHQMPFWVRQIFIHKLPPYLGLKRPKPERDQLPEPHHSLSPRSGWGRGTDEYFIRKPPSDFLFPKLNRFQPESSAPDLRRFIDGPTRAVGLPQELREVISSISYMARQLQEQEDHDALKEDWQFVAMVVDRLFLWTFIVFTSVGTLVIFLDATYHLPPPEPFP
Sequence of α1β1δε mouse muscle receptors (P02716 25-520): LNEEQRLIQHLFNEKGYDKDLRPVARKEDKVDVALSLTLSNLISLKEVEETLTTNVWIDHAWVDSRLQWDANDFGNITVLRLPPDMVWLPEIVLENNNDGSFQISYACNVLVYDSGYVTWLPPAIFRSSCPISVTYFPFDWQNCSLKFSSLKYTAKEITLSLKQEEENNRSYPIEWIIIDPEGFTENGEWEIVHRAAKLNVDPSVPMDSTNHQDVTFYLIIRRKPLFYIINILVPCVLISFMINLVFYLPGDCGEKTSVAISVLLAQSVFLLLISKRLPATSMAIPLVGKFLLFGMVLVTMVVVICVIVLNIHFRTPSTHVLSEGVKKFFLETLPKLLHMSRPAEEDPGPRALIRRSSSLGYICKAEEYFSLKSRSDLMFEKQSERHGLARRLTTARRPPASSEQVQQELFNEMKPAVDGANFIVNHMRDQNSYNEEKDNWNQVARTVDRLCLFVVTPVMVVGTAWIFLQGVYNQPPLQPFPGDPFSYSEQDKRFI
Sequence of α1β1δε mouse muscle receptors (P20782 21-493): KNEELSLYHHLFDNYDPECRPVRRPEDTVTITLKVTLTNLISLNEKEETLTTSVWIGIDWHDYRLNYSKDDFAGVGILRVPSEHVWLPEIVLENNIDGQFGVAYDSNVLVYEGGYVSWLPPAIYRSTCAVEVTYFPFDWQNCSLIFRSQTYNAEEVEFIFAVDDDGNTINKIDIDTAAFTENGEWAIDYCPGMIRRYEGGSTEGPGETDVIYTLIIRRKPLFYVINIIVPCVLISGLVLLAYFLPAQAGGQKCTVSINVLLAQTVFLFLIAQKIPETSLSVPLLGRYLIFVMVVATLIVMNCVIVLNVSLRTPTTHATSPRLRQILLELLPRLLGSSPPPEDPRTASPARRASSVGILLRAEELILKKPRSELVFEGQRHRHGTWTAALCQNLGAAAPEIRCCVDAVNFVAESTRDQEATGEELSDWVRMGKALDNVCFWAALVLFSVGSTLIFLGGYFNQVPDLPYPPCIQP
T3 sequence (P32297 32-505): as the sequence (P32297 32-505) above
T3 sequence (P30926 22-498): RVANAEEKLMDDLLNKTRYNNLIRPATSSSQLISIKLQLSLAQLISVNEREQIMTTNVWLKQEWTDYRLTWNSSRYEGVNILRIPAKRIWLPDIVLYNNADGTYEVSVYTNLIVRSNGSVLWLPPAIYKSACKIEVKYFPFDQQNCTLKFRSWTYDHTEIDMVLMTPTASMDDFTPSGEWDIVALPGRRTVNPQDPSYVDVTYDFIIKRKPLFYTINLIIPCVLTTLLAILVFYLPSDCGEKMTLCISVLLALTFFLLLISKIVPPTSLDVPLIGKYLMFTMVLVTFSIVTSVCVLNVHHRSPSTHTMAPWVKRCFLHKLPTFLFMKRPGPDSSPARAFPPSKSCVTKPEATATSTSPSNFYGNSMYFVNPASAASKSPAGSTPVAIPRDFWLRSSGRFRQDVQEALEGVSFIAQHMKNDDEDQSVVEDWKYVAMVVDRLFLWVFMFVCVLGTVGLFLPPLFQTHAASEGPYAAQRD

O=C(CCCN1CCC(O)(c2ccc(Cl)cc2)CC1)c1ccc(F)cc1 [haloperidol]
cases in which treatment is effective / success rate for motor and vocal tics [1]: about 70%

Clc1cccc(Cl)c1N=C1NCCN1 [clonidine]
cases in which treatment is effective / success rate for motor and vocal tics [1]: 40%

CN[C@@]1(C)[C@@H]2CC[C@@H](C2)C1(C)C [exo-S-mecamylamine, exo-S-N,2,3,3-tetramethyl-bicycl-o-[2.1.1]heptan-2-amine hydrochloride]
locomotion at 30 minutes vs saline/cocaine [2]: significantly different from the result of cocaine alone
voltage dependence of inhibition ([3]; 5 μM, -40 mV vs 90 mV [sic]): significantly different responses
residual inhibition: control ACh response 5 min after exposure ([3]; 5 min wash): greatest for β2-containing receptors
time constant of recovery [3, 19]: about 33 min
affinity for binding site compared with cocaine [4]: lower than the affinity of cocaine
stimulation-induced increases in MAP [5]: completely abolished
increases in heart rate (δ HR) vs saline-treated rats [5]: significantly lowered the increases in heart rate
potency rank, stimulation-induced pressor responses ([5]; of the three forms): most potent
affinity for binding site compared with cocaine [6]: lower than the affinity of cocaine
effect on locomotor activity in the last 30 minutes of testing ([7]; 1 and 3 mg/kg ip): Stimulant effects
dose producing one half of the maximal depressant activity ([7]; ip, 20 min before testing, maximal depression = 0 counts in 30 minutes): 8.5 mg/kg
stimulation-induced increases in plasma NE levels vs saline ([8]; 2.2 Hz): significantly decreased stimulation-evoked plasma NE increases
stimulation-induced plasma EPI responses ([8]; 2.2 Hz): significant decrease in stimulation-induced plasma EPI responses
overall effectiveness on plasma CA and sympathetically-mediated cardiovascular responses ([8]; of the three forms): most effective in reducing plasma CA
voltage dependence of inhibition ([9]; 10 μM, -40 mV vs 90 mV [sic]): significantly different responses
residual inhibition: control ACh response 5 min after exposure ([9]; 5 min wash): least for α7 receptors
IC50 rank among receptor subtypes ([9]; control ACh 300 μM, -50 mV): least potent at inhibiting α7 receptors
spontaneous locomotor activity, total distance traveled [10]: signigicantly less locomotor depressant effects
voltage dependence of inhibition ([11]; 1 μM, -40 mV vs 90 mV [sic]): significant voltage dependence
residual inhibition: control ACh response 5 min after exposure ([11]; 5 min wash): marked decrease in subsequent control response to ACh
inhibition of muscle receptors after wash ([12]; 5-min wash): fully reversed
effect on muscle receptors ([12]; control ACh 3 μM): very little effect
affinity for binding site compared with cocaine [13]: lower than the affinity of cocaine
voltage dependence of inhibition ([14]; 5 μM, -40 mV vs 90 mV [sic]): significant voltage dependence
residual inhibition: control ACh response 5 min after exposure ([14]; 5 min wash): greatest for β2-containing receptors
time constant of recovery, compared with α3β2 [14, 19]: similar
inhibition of response to 10 μM glutamate+10 μM glycine [15]: transient inhibition
duration of seizure vs saline comparison group [16, 20]: significantly different from their saline comparison groups
seizure latency vs saline comparison group [16, 20]: significantly longer seizure latency
nicotine-induced seizures (percentage of rats that seized) [16]: prevented nicotine-induced seizures in a dose-dependent manner
duration and severity of seizure vs saline comparison group ([16]; nicotine 3.6 mg/kg): significantly different from their saline comparison groups
seizure latency vs saline control ([16]; nicotine 3.6 mg/kg): significantly longer latency
number of rats with nicotine-seizures compared with exo-R-mecamylamine ([16]; lowest dose 0.1 mg/kg): fewer rats had nicotine-seizures
initial inhibition ([17]; co-application of 10 μM and ACh at control concentration): greater than 50%
off-loading from some receptors ([17]; compared with exo-R-mecamylamine): slower than exo-R-mecamylamine

CN[C@]1(C)[C@H]2CC[C@H](C2)C1(C)C [exo-R-mecamylamine, reference compound]
stimulation-induced increases in MAP [5]: completely abolished
increases in heart rate (δ HR) vs saline-treated rats [5]: significantly lowered the increases in heart rate
plasma DA levels on sympathetic stimulation vs baseline ([8]; 2.2 Hz): significant increases in plasma DA levels
stimulation-induced increases in plasma NE levels vs saline ([8]; 2.2 Hz): significantly less
effectiveness of isomers compared, particularly center distance and vertical activity [18]: generally more effective at lower doses
duration of seizure vs saline comparison group [16, 20]: did not differ from their saline comparison group
nicotine-induced seizures (percentage of rats that seized) [16]: prevented nicotine-induced seizures in a dose-dependent manner
duration and severity of seizure vs saline comparison group ([16]; nicotine 3.6 mg/kg): significantly different from their saline comparison groups
seizure latency vs saline control ([16]; nicotine 3.6 mg/kg): significantly longer latency
